US10670605B2, “Cysteine reactive probes and uses thereof” (The Scripps Research Institute, priority 2015, dated 2020)

Experiments:
Test in all cases: Competitive isoTOP-ABPP in situ (fragment-treated cells)
Format in all cases: cell-based
[1] = target: T1, cysteines in MDA-MB-231 and Ramos cells (Homo sapiens, UniProt P35754)
T1 sequence (P35754 1-106): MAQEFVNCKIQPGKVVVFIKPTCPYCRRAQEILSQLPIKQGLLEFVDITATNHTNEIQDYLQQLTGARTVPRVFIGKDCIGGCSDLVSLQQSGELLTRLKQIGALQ

[2] = target: T2, cysteines in MDA-MB-231 and Ramos cells (Homo sapiens, UniProt P19447)
T2 sequence (P19447 1-782): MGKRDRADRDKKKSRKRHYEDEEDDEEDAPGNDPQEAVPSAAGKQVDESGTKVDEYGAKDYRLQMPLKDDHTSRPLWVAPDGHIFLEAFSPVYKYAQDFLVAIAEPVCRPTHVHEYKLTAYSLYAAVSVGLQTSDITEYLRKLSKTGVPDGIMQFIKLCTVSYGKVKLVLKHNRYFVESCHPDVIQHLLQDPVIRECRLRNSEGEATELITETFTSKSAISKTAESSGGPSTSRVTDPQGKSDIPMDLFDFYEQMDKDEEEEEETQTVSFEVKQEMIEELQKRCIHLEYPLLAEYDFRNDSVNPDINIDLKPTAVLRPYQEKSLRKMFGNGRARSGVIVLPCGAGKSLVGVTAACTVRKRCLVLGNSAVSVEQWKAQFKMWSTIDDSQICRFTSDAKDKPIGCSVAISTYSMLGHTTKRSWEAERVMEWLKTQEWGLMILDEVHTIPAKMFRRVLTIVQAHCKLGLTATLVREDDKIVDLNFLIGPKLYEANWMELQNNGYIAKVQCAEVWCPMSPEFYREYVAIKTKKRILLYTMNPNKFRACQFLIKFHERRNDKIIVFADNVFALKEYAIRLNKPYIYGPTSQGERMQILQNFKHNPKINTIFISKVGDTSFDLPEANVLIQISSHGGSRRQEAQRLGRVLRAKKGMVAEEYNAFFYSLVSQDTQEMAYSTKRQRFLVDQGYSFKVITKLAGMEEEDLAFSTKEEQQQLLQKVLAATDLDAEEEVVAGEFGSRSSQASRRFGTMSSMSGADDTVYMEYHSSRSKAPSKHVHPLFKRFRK

[3] = target: cysteines in MDA-MB-231 and Ramos cells (Homo sapiens, UniProt P49189); details: 200 μM, insitu
[4] = target: T3, cysteines in MDA-MB-231 and Ramos cells (Homo sapiens, UniProt Q5JPI3)
T3 sequence (Q5JPI3 1-329): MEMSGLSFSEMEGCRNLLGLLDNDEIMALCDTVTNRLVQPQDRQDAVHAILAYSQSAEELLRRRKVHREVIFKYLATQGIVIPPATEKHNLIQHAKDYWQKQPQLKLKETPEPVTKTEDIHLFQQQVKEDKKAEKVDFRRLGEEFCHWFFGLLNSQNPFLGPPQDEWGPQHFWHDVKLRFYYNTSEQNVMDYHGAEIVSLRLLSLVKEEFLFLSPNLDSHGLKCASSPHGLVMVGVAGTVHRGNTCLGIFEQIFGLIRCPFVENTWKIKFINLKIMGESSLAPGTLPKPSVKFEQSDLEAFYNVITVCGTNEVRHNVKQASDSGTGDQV

[5] = target: T4, cysteines in MDA-MB-231 and Ramos cells (Homo sapiens, UniProt Q5T440)
T4 sequence (Q5T440 40-356): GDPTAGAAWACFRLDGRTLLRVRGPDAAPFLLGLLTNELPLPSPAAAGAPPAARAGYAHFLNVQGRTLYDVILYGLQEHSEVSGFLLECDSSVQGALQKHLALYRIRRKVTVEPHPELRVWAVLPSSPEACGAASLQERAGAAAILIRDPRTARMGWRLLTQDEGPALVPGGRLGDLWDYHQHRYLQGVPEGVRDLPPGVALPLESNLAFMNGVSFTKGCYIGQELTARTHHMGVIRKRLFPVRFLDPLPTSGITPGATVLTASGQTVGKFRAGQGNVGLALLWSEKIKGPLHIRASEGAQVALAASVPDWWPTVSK

[6] = target: T5, cysteines in MDA-MB-231 and Ramos cells (Homo sapiens, UniProt Q9NP73)
T5 sequence (Q9NP73 1-1137): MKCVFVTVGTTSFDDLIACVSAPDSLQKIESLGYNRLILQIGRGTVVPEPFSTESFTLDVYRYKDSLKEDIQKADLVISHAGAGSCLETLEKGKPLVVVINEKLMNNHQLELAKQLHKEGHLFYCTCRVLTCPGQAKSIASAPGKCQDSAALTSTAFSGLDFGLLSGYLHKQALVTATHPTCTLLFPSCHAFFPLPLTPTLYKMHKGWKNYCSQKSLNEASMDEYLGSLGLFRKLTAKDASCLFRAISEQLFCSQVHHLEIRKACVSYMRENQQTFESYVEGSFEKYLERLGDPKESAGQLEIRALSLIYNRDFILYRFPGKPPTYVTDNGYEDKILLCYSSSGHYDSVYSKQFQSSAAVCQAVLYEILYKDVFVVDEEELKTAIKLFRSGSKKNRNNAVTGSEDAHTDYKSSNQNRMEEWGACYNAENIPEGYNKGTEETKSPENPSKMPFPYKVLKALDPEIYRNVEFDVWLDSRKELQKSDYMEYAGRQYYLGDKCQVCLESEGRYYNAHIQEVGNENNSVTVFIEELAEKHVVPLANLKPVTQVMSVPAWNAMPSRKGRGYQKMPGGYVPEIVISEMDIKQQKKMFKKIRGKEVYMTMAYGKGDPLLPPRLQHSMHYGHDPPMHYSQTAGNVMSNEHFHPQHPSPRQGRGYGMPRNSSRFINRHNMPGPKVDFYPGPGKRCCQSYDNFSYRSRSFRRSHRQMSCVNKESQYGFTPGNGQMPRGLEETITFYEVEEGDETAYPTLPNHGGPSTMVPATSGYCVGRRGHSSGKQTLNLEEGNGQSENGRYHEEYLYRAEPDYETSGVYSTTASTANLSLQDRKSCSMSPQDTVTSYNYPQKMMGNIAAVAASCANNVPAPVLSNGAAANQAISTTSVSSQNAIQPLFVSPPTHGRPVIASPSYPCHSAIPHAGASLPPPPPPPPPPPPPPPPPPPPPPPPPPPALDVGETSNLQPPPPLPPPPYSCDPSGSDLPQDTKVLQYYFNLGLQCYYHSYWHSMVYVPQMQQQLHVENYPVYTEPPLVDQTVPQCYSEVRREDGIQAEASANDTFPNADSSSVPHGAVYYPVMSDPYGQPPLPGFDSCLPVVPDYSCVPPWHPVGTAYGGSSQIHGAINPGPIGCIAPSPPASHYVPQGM

[7] = target: cysteines in MDA-MB-231 and Ramos cells (Homo sapiens, UniProt Q96FX7)
cysteines in MDA-MB-231 and Ramos cells (Homo sapiens, UniProt Q96FX7), sequence (Q96FX7 whole entry): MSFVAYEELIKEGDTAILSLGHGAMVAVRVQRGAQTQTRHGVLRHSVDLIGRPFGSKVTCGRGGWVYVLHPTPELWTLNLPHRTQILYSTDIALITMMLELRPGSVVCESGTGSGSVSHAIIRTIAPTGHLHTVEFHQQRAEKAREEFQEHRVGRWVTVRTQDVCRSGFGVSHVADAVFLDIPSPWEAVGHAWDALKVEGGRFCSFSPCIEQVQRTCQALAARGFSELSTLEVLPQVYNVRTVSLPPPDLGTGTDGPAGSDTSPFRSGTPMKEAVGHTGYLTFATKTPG

cysteines in MDA-MB-231 and Ramos cells (Homo sapiens, UniProt P49189), sequence (P49189 whole entry): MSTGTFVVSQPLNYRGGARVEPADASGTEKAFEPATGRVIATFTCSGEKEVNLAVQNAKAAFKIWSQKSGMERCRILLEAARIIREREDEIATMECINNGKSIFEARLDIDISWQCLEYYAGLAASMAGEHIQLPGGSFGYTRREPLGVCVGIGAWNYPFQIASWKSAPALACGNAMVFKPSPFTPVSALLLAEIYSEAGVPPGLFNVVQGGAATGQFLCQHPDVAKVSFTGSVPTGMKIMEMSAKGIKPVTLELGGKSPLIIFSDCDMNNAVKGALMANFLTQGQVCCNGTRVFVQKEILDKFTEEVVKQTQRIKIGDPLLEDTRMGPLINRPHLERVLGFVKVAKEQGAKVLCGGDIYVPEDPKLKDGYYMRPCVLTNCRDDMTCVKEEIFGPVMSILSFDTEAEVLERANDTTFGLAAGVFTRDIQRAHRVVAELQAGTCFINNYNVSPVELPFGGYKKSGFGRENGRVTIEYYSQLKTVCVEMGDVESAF

COc1ccccc1OCCNC(=O)CCl [compound 28]
isoTOP-ABPP ratio P35754_C23 ([1]; 200 μM, insitu, 231): 1.4

Cc1ccc(C=C(C#N)C(=O)NCCN2CCOCC2)cc1 [compound 41]
isoTOP-ABPP ratio P19447_C342 ([2]; 200 μM, insitu, 231): 0.7 | isoTOP-ABPP ratio P35754_C23 ([1]; 200 μM, insitu, 231): 0.5 | isoTOP-ABPP ratio P49189_C288 [3]; 231: 0.8 | isoTOP-ABPP ratio Q5JPI3_C308 ([4]; 200 μM, insitu, 231): 0.7 | isoTOP-ABPP ratio Q5T440_C170 ([5]; 200 μM, insitu, 231): 0.7 | isoTOP-ABPP ratio Q9NP73_C86 ([6]; 200 μM, insitu, 231): 0.5

O=C(CCl)NC(=O)NC12CC3CC(CC(C3)C1)C2 [compound 12]
isoTOP-ABPP ratio P19447_C342 ([2]; 200 μM, insitu, 231): 6.7 | isoTOP-ABPP ratio P35754_C23 ([1]; 200 μM, insitu, 231): 20.0 | isoTOP-ABPP ratio P49189_C288 [3]; 231: 1.8 | isoTOP-ABPP ratio, cysteine Q96FX7_C209 ([7]; 200 μM, insitu, 231): 20.0

O=C(CCl)NCCc1c[nH]c2ccccc12 [compound 13]
isoTOP-ABPP ratio P19447_C342 ([2]; 200 μM, insitu, 231): 1.1 | isoTOP-ABPP ratio P49189_C288 ([3]; ramos): 12.0 | isoTOP-ABPP ratio, cysteine Q5JPI3_C308 ([4]; 200 μM, insitu, 231): 1.1 | isoTOP-ABPP ratio, cysteine Q5JPI3_C308 ([4]; 200 μM, insitu, ramos): 1.7 | isoTOP-ABPP ratio Q5T440_C170 ([5]; 200 μM, insitu, 231): 1.2 | isoTOP-ABPP ratio, cysteine Q96FX7_C209 ([7]; 200 μM, insitu, 231): 2.1 | isoTOP-ABPP ratio, cysteine Q96FX7_C209 ([7]; 200 μM, insitu, ramos): 6.8 | isoTOP-ABPP ratio Q9NP73_C86 ([6]; 200 μM, insitu, 231): 0.9 | isoTOP-ABPP ratio Q9NP73_C86 ([6]; 200 μM, insitu, ramos): 1.4

O=C(CCl)N1CCC(Cc2ccccc2)CC1 [compound 9]
isoTOP-ABPP reactivity P49189_C288 ALDH9A1 [3]; 231: 20.0

COc1ccc(C2CC(c3cccs3)=NN2C(=O)CCl)cc1 (stereo not drawn) [compound 4]
isoTOP-ABPP reactivity P35754_C23 GLRX ([1]; 100 μM in situ 231): 20.0 | isoTOP-ABPP reactivity Q5T440_C170 IBA57 ([5]; 100 μM in situ 231): 1.5 | isoTOP-ABPP reactivity Q96FX7_C209 TRMT61A ([7]; 100 μM in situ 231): 2.4 | isoTOP-ABPP reactivity Q9NP73_C86 ALG13 ([6]; 100 μM in situ 231): 20.0

O=C(CCl)NC12CC3CC(CC(C3)C1)C2 [compound 21]
isoTOP-ABPP ratio P19447_C342 ([2]; 200 μM, insitu, 231): 2.0 | isoTOP-ABPP ratio P49189_C288 [3]; 231: 1.0 | isoTOP-ABPP ratio, cysteine Q5JPI3_C308 ([4]; 200 μM, insitu, 231): 0.9 | isoTOP-ABPP ratio Q5T440_C170 ([5]; 200 μM, insitu, 231): 1.6 | isoTOP-ABPP ratio, cysteine Q96FX7_C209 ([7]; 200 μM, insitu, 231): 2.0

O=C(CCl)Nc1cccc2ncccc12 [compound 51]
isoTOP-ABPP ratio Q9NP73_C86 ([6]; 200 μM, insitu, 231): 1.3

Cn1cc(S(=O)(=O)N2CCOCC2)cc1C(=O)NC(=O)CCl [compound 11]
isoTOP-ABPP ratio P19447_C342 ([2]; 100 μM in situ 231): 0.7 | isoTOP-ABPP ratio P35754_C23 ([1]; 100 μM in situ 231): 20.0 | isoTOP-ABPP ratio, cysteine Q5JPI3_C308 ([4]; 100 μM in situ 231): 1.0 | isoTOP-ABPP ratio Q9NP73_C86 ([6]; 100 μM in situ 231): 0.7

C=CC(=O)Nc1cc(F)c(N2CCN(C(=O)OC(C)(C)C)CC2)c(F)c1 [compound 38]
isoTOP-ABPP ratio P19447_C342 ([2]; 200 μM, insitu, 231): 1.0 | isoTOP-ABPP ratio P35754_C23 ([1]; 200 μM, insitu, 231): 0.9 | isoTOP-ABPP ratio P49189_C288 [3]; 231: 0.7 | isoTOP-ABPP ratio Q96FX7_C209 ([7]; 200 μM, insitu, 231): 1.0 | isoTOP-ABPP ratio Q9NP73_C86 ([6]; 200 μM, insitu, 231): 1.3

CC1CCc2ccccc2N1C(=O)CCl (stereo not drawn) [compound 45]
isoTOP-ABPP ratio P19447_C342 ([2]; 200 μM, insitu, 231): 5.9 | isoTOP-ABPP ratio P35754_C23 ([1]; 200 μM, insitu, 231): 16.3 | isoTOP-ABPP ratio P49189_C288 [3]; 231: 20.0 | isoTOP-ABPP ratio Q5T440_C170 ([5]; 200 μM, insitu, 231): 3.5 | isoTOP-ABPP ratio Q96FX7_C209 ([7]; 200 μM, insitu, 231): 20.0 | isoTOP-ABPP ratio Q9NP73_C86 ([6]; 200 μM, insitu, 231): 20.0

COc1ccc2c(c1)CCCN2C(=O)CCl [compound 2]
isoTOP-ABPP reactivity Q5JPI3_C308 C3orf38 ([4]; 200 μM, insitu, 231): 2.9 | isoTOP-ABPP reactivity Q5T440_C170 IBA57 ([5]; 200 μM, insitu, 231): 14.0 | isoTOP-ABPP reactivity Q96FX7_C209 TRMT61A ([7]; 200 μM, insitu, 231): 20.0 | isoTOP-ABPP reactivity Q9NP73_C86 ALG13 ([6]; 200 μM, insitu, 231): 20.0

COc1cc2c(cc1OC)CN(C(=O)CCl)CC2 [compound 8]
isoTOP-ABPP reactivity P19447_C342 ERCC3 ([2]; 200 μM, insitu, 231): 12.4

CC(C)CCOCCNC(=O)CCl [compound 27]
isoTOP-ABPP ratio P35754_C23 ([1]; 200 μM, insitu, 231): 0.7 | isoTOP-ABPP ratio Q5JPI3_C308 ([4]; 200 μM, insitu, 231): 0.7 | isoTOP-ABPP ratio Q9NP73_C86 ([6]; 200 μM, insitu, 231): 0.4

O=C(CCl)N1CCN(S(=O)(=O)c2ccccc2F)CC1 [compound 10]
isoTOP-ABPP ratio P19447_C342 ([2]; 200 μM, insitu, 231): 20.0 | isoTOP-ABPP ratio P35754_C23 ([1]; 200 μM, insitu, ramos): 13.0 | isoTOP-ABPP ratio P49189_C288 [3]; 231: 20.0 | isoTOP-ABPP ratio Q5T440_C170 ([5]; 200 μM, insitu, 231): 5.7

O=C(CCl)N1CCN(CC(=O)N2CCOCC2)CC1 [compound 29]
isoTOP-ABPP ratio Q5JPI3_C308 ([4]; 200 μM, insitu, ramos): 1.3 | isoTOP-ABPP ratio Q5T440_C170 ([5]; 200 μM, insitu, ramos): 1.3 | isoTOP-ABPP ratio Q9NP73_C86 ([6]; 200 μM, insitu, ramos): 2.0

C=CC(=O)N(Cc1cccnc1)c1cc(C(F)(F)F)cc(C(F)(F)F)c1 [compound 31]
isoTOP-ABPP ratio P35754_C23 ([1]; 200 μM, insitu, 231): 0.6 | isoTOP-ABPP ratio P35754_C23 ([1]; 200 μM, insitu, ramos): 1.1
